Measurements from PMC7595212, “Functional interaction between Ghrelin and GLP-1 regulates feeding through the vagal afferent system” (Scientific Reports, 2020).

How the values were obtained:
[1] = tested on: mice; test: Feeding experiments in mice (1-h food intake); format: in vivo, mouse; settings: for food intake, GLP-1 preadministration before ghrelin: GLP-1 3 nmol i.p. 30 min before ghrelin 1.5 nmol i.p., n = 8
[2] = tested on: NG neurons; test: Calcium response in single neurons isolated from NG (Fura-2); format: cell-based, mouse
Method: Bilateral NGs resected from mice were immersed in hibernateA media (BrainBits). Each ganglion was cut into five pieces, placed in HibernateA minus Ca^2+ media (BrainBits) containing 1 mg/ml collagenase/dispase (Roche Diagnostics) and incubated for 90 min at 37 °C. Neurons were dispersed by gentle titration through pipettes and they were washed three times with fresh NbActive4 media (BrainBits) and plated onto poly-D-lysine/laminin (BD Bioscience)-coated coverslips, followed by incubation (5% CO2 in air at 37 °C) for 24 h. Cultures were rinsed in 10 mM phosphate buffered saline (PBS) and fixed with 4% paraformaldehyde (PFA) in phosphate buffer (PB). Ganglion neurons were incubated with the first primary antibodies; anti-GLP-1R or anti-GHSR at 4 °C overnight, and then with the second primary antibodies; anti-GHSR or anti-Pan Neuronal Marker (Supplementary Table S1) at 4 °C overnight. They were then reacted with corresponding Alexa Fluor 488- or 594-conjugated secondary IgG (Supplementary Table S1) at RT for 1 h. Neurons were observed under a fluorescence microscope (Olympus).
Ca^2+ imaging was performed under continuous perfusion of NG neurons with Krebs–Ringer-Henseleit buffer (Composition in mmol L^−1: NaCl 119, KCl 4.74, CaCl2 2.54, MgCl2 1.19, KH2PO4 1.19, NaHCO3 25, HEPES 10, pH 7.4) at a flow rate of 600 μl/min at 37 °C. NG neurons were loaded with 1 µM Fura-2 acetoxymethyl ester (Dojindo Labs) in NbActive4 media at 37 °C for 30 min. For Ca^2+ measurements in an integrated fluorescence microscope (Keyence BZ-X700), images were captured at 10-s intervals; 340- and 380-nm excitation filters were used for Fura-2-AM dual-wavelength excitation ratio imaging. NG neurons were stimulated with 10 nM either ghrelin or GLP-1, and 10 min later stimulated with the other peptide. At the end of experiments, cells were exposed to 100 mM KCl (Nacalai Tesque) for 2 min. […] All data were expressed as percent changes from the average of the 340/380 fluorescence ratio in response to ghrelin or GLP-1.
All neurons collected in retrograde tracing studies and used to assess calcium response and patch-clamp recording were picked up by the UnipicK + system (NeuroInDx) immediately after each measurement. RNA was isolated from single neurons with PicoPure RNA Isolation Kit (Applied Biosystems). qRT-PCR (primer sets, Supplementary Table S2) was conducted with SYBR Premix Ex Taq (2 ×) (Takara Bio Inc.) on a Thermal Cycler Dice Real-Time System II (Takara Bio Inc.). In the retrograde tracer studies, percentage of stomach-innervating NG neurons expressing Ghsr or Glp1r were analysed. In the patch-clamp recording, only Ghsr^+ Glp1r^+ neuron cells were used for the final analysis.

[3] = Pharmacokinetics analysis: plasma profiles of ghrelin and GLP-1 in rats; settings: i.v. into femoral vein, peptide administered first (GLP-1 3 nmol, ghrelin 1.5 nmol), GLP-1 by active ELISA, ghrelin by enzyme immunoassay
Method: Blood was withdrawn from the right jugular vein at: 1, 2.5, 5, 10, 20, 30, 32.5, 35, 40, 50, and 60 min after the first injection. Blood was collected into tubes containing 1.25 mg EDTA and aprotinin (500 kallikrein-inhibiting units/ml blood) (Wako Pure Chemical Industries), and all samples were centrifuged within 2 h of collection. […] For ghrelin assay, 1 M HCl (100 µl/ml) was added to the plasma. All samples were stored at − 70 °C until analysis.

[4] = tested on: Fos expression in NG, NTS and ARC neurons; test: Fos immunohistochemical staining (NG, NTS, ARC); format: in vivo, mouse; settings: mice
Method: The NG and brain were removed, fixed overnight in a fixative solution containing 4% PFA, cryoprotected in 0.1 M PB containing 20% sucrose and embedded in Tissue-Tek O.C.T. compound. The 10 µm sections were mounted on slides permeabilized with 0.3% triton X-100 in PBS (PBS-T). After permeabilization, antigens were retrieved by heating the sections in an autoclave for 1 h at 70 °C with a Histo VT one (Nakalai Teaque, Kyoto, Japan). All sections were blocked with 5% goat-serum in PBS-T. Three specimens each of NG, NTS and ARC were incubated for 48 h at 4 °C with c-Fos antiserum (Supplementary Table S1), then incubated for 1 h with Alexa Fluor 488- (NTS and ARC) or 594- (NG) conjugated anti-rabbit IgG at room temperature (Supplementary Table S1). To stain nuclei of the neurons, the specimens from NG were incubated with Alexa Fluor 488-conjugated Anti-NeuN IgG (Supplementary Table S1) at RT for 1 h, and the specimens from NTS and ARC were incubated overnight with Alexa Fluor 555-conjugated anti-NeuN IgG (Supplementary Table S1) at 4 °C. Images of immunofluorescence staining were observed using a Nikon C2 + confocal laser scanning microscope (Nikon, Tokyo, Japan). Fos-positive neurons in three specimens from each animal were counted using ImageJ.

[5] = tested on: rats; test: Feeding experiments in rats (1-h food intake); format: in vivo, rat; settings: GLP-1 3 nmol i.v.
Method: First, rats fasted for 8 h (02:00–10:00) received an i.v. injection of human GLP-1 (3 nmol/100 µl saline, CS Bio) or saline at 10:00, then they were administered human ghrelin (1.5 nmol/100 µl saline, Peptide Institute) or saline injection at 10:30. Food intake was determined from 10:30 to 11:30. Secondly, rats fed ad libitum received an i.v. ghrelin (1.5 nmol/100 µl) or saline injection at 10:00 or 19:30, then they were administered GLP-1 (3 nmol/100 µl) or saline injection at 10:30 or 20:00. Food intake was measured from 10:30 to 11:30 or 20:00 to 21:00. Thirdly, mice fasted for 8 h (02:00–10:00) received an i.p. injection of ghrelin (1.5 nmol/100 µl saline) or saline at 10:00, then they were administered human GLP-1 (3 nmol/100 µl saline) or saline at 10:30 and 1 h food intake (10:30–11:30) was measured. Fourthly, Ghsr^−/− and their wild-type mice fasted for 12 h (22:00–10:00) were administered ghrelin (1.5 nmol/50 µl saline, i.p.) at 10:00, then they were administered GLP-1 (3 nmol/50 µl saline, i.p.) or saline injection at 10:30, and food intake was measured from 10:30 to 11:30. Finally, Glp1r ^−/− and their wild-type mice were administered GLP-1 (3 nmol/50 µl, i.p.) or saline at 10:00, subsequently given a ghrelin (1.5 nmol/50 µl, i.p.) or saline injection at 10:30, food intake was measured from 10:30 to 11:30. […]

[6] = tested on: NG neurons; test: Whole-cell voltage-clamp (patch-clamp) of NG neurons; format: cell-based, mouse; settings: whole-cell voltage clamp -80 to 40 mV, 10 nM peptide, Ghsr- and Glp1r-expressing NG neurons, n = 10
Method: NG neurons were perfused in the bath solution (Composition in mmol L^−1: NaCl 126.2, KCl 3.1, MgCl2 2, CaCl2 2, HEPES 10, glucose 10; pH 7.39, osmolarity 320 mOsm) with 10 nM ghrelin or 10 nM GLP-1. Whole-cell recordings were performed using patch pipettes of 3.5–5 MΩ resistance backfilled with a solution (Composition in mmol L^−1: K gluconate 125, KCl 8, MgCl2 4, HEPES 10, ATP 2, GTP 0.4, Na2-creatine phosphate 5; pH 7.23, osmolarity 300 mOsm). After obtaining a giga-seal, membrane access resistance was monitored for 5–10 min until it became stable at 10 MΩ or less. Data were acquired from isolated vagal sensory neurons of mice in Axopatch 1D amplifier (Molecular Devices) filtered at 1 kHz. Signals were digitised in analogue-to-digital converter (Axon Digidata 1322A; Molecular Devices), and analysed on a computer running pCLAMP 10 software (Molecular Devices).
All neurons collected in retrograde tracing studies and used to assess calcium response and patch-clamp recording were picked up by the UnipicK + system (NeuroInDx) immediately after each measurement. […] In the retrograde tracer studies, percentage of stomach-innervating NG neurons expressing Ghsr or Glp1r were analysed. […]

[7] = tested on: gastric vagal afferent; test: Multi-unit nerve discharge of the gastric vagal afferent; format: in vivo, rat; settings: anaesthetised rats, i.v., n = 3
Method: Multi-unit neural discharge in gastric vagal afferent fibres was recorded extracellularly. Rats were anesthetised by an i.p. injection of urethane (1 g/kg) (Sigma-Aldrich). The electrophysiological study was performed entirely under anaesthetisation as described previously. After the gastric branch of the vagal nerve was visualised, we placed filaments isolated from the peripheral cut end of the ventral branch for the recording of afferent nerve activity via a pair of silver wire electrodes connected through an alternating current-coupled differential amplifier (ER-1; Cygnus Technology) to PowerLab (AD Instruments). The nerve activities were recorded and analysed using LabChart v8 software (AD Instruments). […] After the first administration, nerve discharges from the multi-unit afferents were analysed for 60 min.

SMILES: CC[C@H](C)[C@H](NC(=O)[C@H](Cc1ccccc1)NC(=O)[C@H](CCC(=O)O)NC(=O)[C@H](CCCCN)NC(=O)[C@H](C)NC(=O)[C@H](C)NC(=O)[C@H](CCC(N)=O)NC(=O)CNC(=O)[C@H](CCC(=O)O)NC(=O)[C@H](CC(C)C)NC(=O)[C@H](Cc1ccc(O)cc1)NC(=O)[C@H](CO)NC(=O)[C@H](CO)NC(=O)[C@@H](NC(=O)[C@H](CC(=O)O)NC(=O)[C@H](CO)NC(=O)[C@@H](NC(=O)[C@H](Cc1ccccc1)NC(=O)[C@@H](NC(=O)CNC(=O)[C@H](CCC(=O)O)NC(=O)[C@H](C)NC(=O)[C@@H](N)Cc1c[nH]cn1)[C@@H](C)O)[C@@H](C)O)C(C)C)C(=O)N[C@@H](C)C(=O)N[C@@H](Cc1c[nH]c2ccccc12)C(=O)N[C@@H](CC(C)C)C(=O)N[C@H](C(=O)N[C@@H](CCCCN)C(=O)NCC(=O)N[C@@H](CCCNC(=N)N)C(N)=O)C(C)C [GLP-1, glucagon-like peptide 1]
- food intake, GLP-1 preadministration before ghrelin ([1]; Glp1r-/- mice fed ad libitum): did not affect ghrelin-induced feeding
- feeding effect of the peptide administered second ([1]; mice, two peptides in a 60-min interval, peptide given 60 min after the first peptide): exhibited its proper effect
- food intake, GLP-1 preadministration before ghrelin ([1]; wild-type mice (of Glp1r-/-) fed ad libitum): abolished ghrelin-induced feeding
- calcium response, GLP-1 after ghrelin ([2]; Glp1r+Ghsr+ neurons, 10 nM GLP-1 10 min after 10 nM ghrelin, n = 10): failed to evoke calcium response
- calcium response ([2]; Glp1r+Ghsr+ neurons, 10 nM GLP-1 given first, n = 10): evoked calcium response
- calcium response ([2]; Glp1r+Ghsr- neurons, 10 nM GLP-1): evoked calcium response
- calcium response ([2]; Glp1r-Ghsr- neurons, 10 nM GLP-1): not
- time at which plasma concentration returned to the base [3]: 30 min
- ghrelin-induced Fos in the ARC after GLP-1 preadministration ([4]; GLP-1 3 nmol i.p. 30 min before ghrelin 1.5 nmol i.p., n = 4): abolished ghrelin-induced Fos in the ARC
- Fos-positive neurons in left NG ([4]; GLP-1 3 nmol i.p. alone, n = 3): 70.5%
- Fos-positive neurons in right NG ([4]; GLP-1 3 nmol i.p. alone, n = 3): 71.0%
- Fos in the NTS ([4]; GLP-1 3 nmol i.p. alone, n = 4): induced Fos in the NTS
- food intake ([5]; 8-h fasted rats, compared with saline, n = 8): significantly reduced food intake
- food intake ([5]; rats fed ad libitum, dark phase (20:00-21:00), n = 6): suppressed feeding
- current in I/V relationship [6]: generated depolarizing current
- gastric vagal afferent activity ([7]; ghrelin 1.5 nmol or GLP-1 1 nmol, peptide given first): enhanced it
- gastric vagal afferent activity, second peptide ([7]; peptide given 30 min after the other peptide (ghrelin 1.5 nmol, GLP-1 1 nmol)): GLP-1-enhanced activity was not observed
